Assay [1] concerns endogenous Nrf2 target gene, NQO1. Description: RT-qPCR validation of ARE inhibition in MDA-MB-231-ARE-Luc cells. Type of assay: cell-based, human. The note with it: 24 h, relative to 0.5% DMSO. As for the experimental part: (§1) The library compounds were then assessed for the potential to modulate the activity of another key transcription factor, NF-E2-related factor 2 (Nrf2), which acts on the antioxidant response element (ARE) in the promoter region upstream of antioxidant and phase II detoxification enzymes. Activators of the Nrf2-ARE pathway have potential as cancer preventive agents because of their ability to increase antioxidant status of the cell and protect from oxidative damage that could lead to cancer. Inhibitors in turn may increase the susceptibility of cancer cells to chemotherapeutic agents and overcome drug resistance since Nrf2 is commonly activated in cancer.^44 To screen for Nrf2 inhibitors, MDA-MB-231 breast cancer cells (a model for invasive, triple negative breast cancer) stably transfected with the ARE-luciferase reporter were used, where the promoter region is derived from the human NQO1 gene.^45 As a control, cell viability was monitored to ensure the identification of false positives in the reporter gene assay that are a result of concomitant reduced cell viability.
The antioxidant response element (ARE) expression induction assay with LNCaP cells was performed as previously described.^6 The ARE expression inhibition assay was performed with MDA-MB-231-ARE-Luc cells that stably express the ARE reporter construct.7 MDA-MB-231-ARE-Luc cells were seeded in 96 well plates at 1.5×10^4 cells/well in DMEM medium (GIBCO) containing 10% FCS and 1% antibiotic-antimycotic (GIBCO), and allowed to attach overnight. Test compounds were screened in triplicate at three concentrations (100, 10 and 1 μM) and ARE expression was quantified on the EnVision plate reader (Perkin-Elmer) using the BriteLite plus luciferase reporter assay system (Perkin-Elmer) after 24 h exposure in a humidified incubator at 37° C. with 5% CO2. […]
In order to validate the ARE modulatory effects of compounds from the primary screen, the expression of the target Nrf2 target gene, Ngo1, was quantified by RT-qPCR. […]
Background: In qPCR the cycle at which signal appears reflects the starting amount.

A further assay has as its system Staphylococcus aureus. Description: Bacterial growth inhibition assay, S. aureus. Type of assay: cell-based. Conditions: 16-18 h, OD600. The method, then: (§2) Each biological screen was performed in three independent experiments at concentrations of 1, 10, 100 or 200 μM. All hit compounds identified in primary screens were then evaluated in follow-up assays to validate/confirm the initial screening results.
Bacterial growth inhibition was determined by screening all yohimbine-derived compounds at 200 μM in 96-well plates. Briefly, 2 μL of a 20 mM DMSO stock solution (test compound) was added to 98 μL of media (tryptic soy broth with 0.5% glucose for S. aureus; LB for A. baumannii) before each well was treated with an additional 100 μL of inoculated media (giving ˜10^5 colony forming units per milliliter) prepared from a fresh log-phase culture (OD600 of 0.8 to 1.0). The inoculated 96-well plates were then covered and placed in a humidifying chamber and allowed to incubate at 37° C. for 16-18 hours. Bacterial growth was then determined using a spectrophotometer plate reader (OD600) to quantify turbidity (growth) in each treated and untreated well of the 96-well plates. Turbidity for treated wells were compared to a 1% v/v DMSO vehicle and recorded in the screening heat map. All compounds were tested in three independent experiments.

For another assay, the system named is endogenous NQO1. Description: RT-qPCR validation of ARE activation in LNCaP cells. Type of assay: cell-based, human. The note with it: for levels of endogenous NQO1 (ARE activation): 24 h, RT-qPCR, relative to 0.5% DMSO; for potency compared with positive control sulforaphane: NQO1 RT-qPCR, sulforaphane 10 μM. The method, then: (§3) As a control, LNCaP viability was monitored in parallel (FIG. 11E).
(§4) The antioxidant response element (ARE) expression induction assay with LNCaP cells was performed as previously described.^6 The ARE expression inhibition assay was performed with MDA-MB-231-ARE-Luc cells that stably express the ARE reporter construct.7 MDA-MB-231-ARE-Luc cells were seeded in 96 well plates at 1.5×10^4 cells/well in DMEM medium (GIBCO) containing 10% FCS and 1% antibiotic-antimycotic (GIBCO), and allowed to attach overnight. Test compounds were screened in triplicate at three concentrations (100, 10 and 1 μM) and ARE expression was quantified on the EnVision plate reader (Perkin-Elmer) using the BriteLite plus luciferase reporter assay system (Perkin-Elmer) after 24 h exposure in a humidified incubator at 37° C. with 5% CO2. In both cell line assays the luciferase expression for compound-treated wells was expressed relative the 0.5% DMSO carrier solvent control. A parallel viability assay was performed with the Cell Titer 96 Non-radioactive Cell Proliferation Assay (Promega) and the data expressed in the same manner as above. Compounds that inhibited ARE expression 20% more than viability, or induced ARE expression more than three-fold were re-tested in a seven-point, two-fold serial dilution dose-response assay (100-1.56 μM).
In order to validate the ARE modulatory effects of compounds from the primary screen, the expression of the target Nrf2 target gene, Ngo1, was quantified by RT-qPCR. LNCaP and MDA-MB-231-ARE-Luc cells were seeded in 6 well plates at 5×10^5 and 7×10^5 cells per well, in EMEM and DMEM media containing 10% FCS and 1% antibiotic-antimycotic (GIBCO) respectively. Cells were allowed to attach overnight before the addition of test compounds. After 24 h exposure in a humidified incubator at 37° C. with 5% CO2, RNA was isolated using the RNeasy kit (Qiagen) and quantified using a NanoDrop spectrophotometer (Thermo Fisher Scientific). cDNA was synthesized from 2 μg of RNA using Oligo(dT)12-18 (Life Technologies) primer and SuperScript II (Thermo Fisher Scientific) on the Mastercycler Gradient PCR machine (Eppendorf) for 1 h at 42° C. following a 10 min denaturation at 65° C. Gene expression was quantified on the 7300 Real Time PCR machine (Applied Biosystems) using TaqMan Gene Expression Master Mix (Thermo Fisher Scientific) and probes for the target gene Nqo1 (Hs02512143_s1, Thermo Fisher Scientific) and reference gene ActB (Hs99999903_m1, Thermo Fisher Scientific). Real time PCR was performed with the following thermal cycle: 1. 50° C. for 2 min; 2. 95° C. for 10 min; 3. 40 cycles of 95° C. for 15 sec followed by 60° C. for 1 min.

In assay [2] the test system is NO production in RAW264.7 cells. Description: Nitric oxide assay (Griess reagent). In kind it is cell-based, mouse. Conditions: RAW264.7 macrophage cells, LPS, 24 h. As for the experimental part: as §2
(§5) Mouse macrophage, RAW264.7 cells were cultured in Dulbecco's Modified Eagle Medium (DMEM) supplemented with 10% fetal bovine serum and maintained in 5% C02 at 37° C. Cells were seeded in 96-well plates (20,000 cells/well) and after 24 h pretreated for 1 hour with different concentrations of test compounds in triplicate or solvent control (0.5% DMSO) before adding LPS (1 μg/mL in PBS). Nitric oxide (NO) production in culture supernatant was assessed after 24 h following treatment by measuring nitrite concentration, an oxidative product of NO. Nitrite production was measured by mixing […] of culture supernatant with […] of Griess reagent (Promega), absorbance measured at 540 nm and NO % calculated against a calibration curve generated for fresh sodium nitrite standard. Cells were used for measuring viability (24 h) as above.

Assay [3] relates to parental HCT116 and HCT116 HIF-1α−/−HIF-2α−/− cells. Description: Cell viability assay in isogenic HCT116 lines (HIF-dependent anticancer activity). In kind it is cell-based, human. Conditions: parental HCT116 vs HCT116 HIF-1α/HIF-2α double knockout, 48 h, MTT.
Source text: The screen aimed to identify selective antiproliferative agents that preferentially act on cancer cells with functional hypoxia-inducible factors (HIF) pathways. […] Isogenic HCT116 colorectal cancer cell lines were employed, including parental HCT116 and HCT116 double knockout cells lacking HIF-1α and HIF-2α,^36,37 and the library was screened for differential antiproliferative activity.
A further assay deals with RAW264.7 cells. Description: RAW264.7 cell viability (MTT). Conditions: 24 h. In kind it is cell-based, mouse. The method, then: Human colorectal cancer cell lines HCT116, HCT116^HIF-1α−/−HIF-2α−/−, and HCT 116^WT KRAS were cultured in Dulbecco's Modified Eagle Medium (DMEM) supplemented with 10% fetal bovine serum and maintained in 5% CO2 at 37° C. The cells were seeded in a 96-well plate (10,000 cells/well) and treated with different concentrations of test compounds or solvent control (0.5% DMSO) after 24 h. Cell viability was measured 48 h following treatment with MTT dye using the manufacturer's protocol (Promega).
as §5

The subject of assay [4] is Nrf2-ARE pathway (ARE-luciferase reporter). Description: ARE luciferase assay in LNCaP cells (activation). In kind it is cell-based, human. Conditions: 24 h, screened at 100, 10 and 1 μM. The method, then: as §2, §3
as §4, with “Compounds that inhibited ARE expression 20% more than viability, or induced ARE expression more than three-fold were re-tested in a seven-point, two-fold serial dilution dose-response assay (100-1.56 μM).” left out

The test system is the same in assay [5]. Description: ARE luciferase assay in MDA-MB-231-ARE-Luc cells (inhibition). In kind it is cell-based, human. The note with it: 24 h, screened at 100, 10 and 1 μM. As for the experimental part: as §2
as §1, with “viability. […]” for “viability.”

The inhibition is how much of the control response was suppressed. For `COC(=O)[C@@H]1[C@H]2C[C@@H](c3[nH]c4ccccc4c3CCn3cc(-c4cccc(Cl)c4)nn3)N(C#N)C[C@@H]2CC[C@@H]1O` [Y1f], the “transcription of endogenous NQO1” value in assay [1] is reported as “downregulated NQO1 transcription”. In the assay on Staphylococcus aureus, this compound displayed an inhibition at 200 µM of around 20%.
In the case of `COC(=O)[C@@H]1[C@H]2C[C@@H]3N(CC[C@@]34C(=O)N(c3ccc(Oc5ccccc5)cc3)c3ccccc34)C[C@@H]2CC[C@@H]1O` [Y3e], in assay [1], the “transcription of endogenous NQO1” value is “downregulated NQO1 transcription”.
In the case of `OC[C@@H]1[C@H]2C[C@@H]3OCc4ccccc4-n4c3c(c3ccccc34)CCNC[C@@H]2CC[C@@H]1O` [Y5b], in the assay on endogenous NQO1, the “levels of endogenous NQO1 (ARE activation)” value is “active at lower concentrations” and the “potency compared with positive control sulforaphane” value is recorded as “only slightly less potent than the positive control”.
On to `COC(=O)[C@@H]1[C@H]2C[C@H](OCc3ccc(Br)cc3)c3[nH]c4ccccc4c3CCN(C#N)C[C@@H]2CC[C@@H]1O` [Y6q], for which the “transcription of endogenous NQO1” value in assay [1] is recorded as “downregulated NQO1 transcription”. In the assay with Staphylococcus aureus, this compound displayed an inhibition at 200 µM of around 20%.
For the compound `CC(=O)N1CCc2c([nH]c3ccccc23)[C@H](OCc2ccccc2)C[C@H]2[C@@H](CC[C@H](O)[C@@H]2CO)C1` [Y6u], in the assay on endogenous NQO1, the “levels of endogenous NQO1 (ARE activation)” value is reported as “active at lower concentrations” and the “potency compared with positive control sulforaphane” value is recorded as “only slightly less potent than the positive control”.
Take `COC(=O)[C@@H]1[C@H]2C[C@@H]3N(CC[C@@]34C(=O)N(Cc3cccc(OC)c3)c3ccccc34)C[C@@H]2CC[C@@H]1OCc1cccc(OC)c1` [Y7g]: in assay [2], the “inhibition of nitric oxide (NO) production” value is reported as “most selective anti-inflammatory activity”. In assay [3], the “differential (HIF-dependent) antiproliferative activity” value is listed as “most selective antiproliferative agent”. Moreover, in the assay on RAW264.7 cells, the cell viability entry is recorded as “almost unaffected”.
As for `COC(=O)[C@@H]1[C@H]2C[C@H]3c4[nH]c5ccccc5c4CCN3C[C@@H]2CC[C@@H]1O` [yohimbine 1, yohimbine], the “inhibition of nitric oxide (NO) production” value in assay [2] is recorded as “does not possess any of these activities”. Besides, in assay [4], the “ARE activation (luciferase reporter)” value was “does not possess any of these activities”. The “ARE inhibition (luciferase reporter)” value in assay [5] is on record as “does not possess any of these activities”.

(Values after patent US11242331B2 (University of Florida Research Foundation, Incorporated, priority 2016, dated 2022).)
